# Measured values taken from US20240350430A1, “GROWTH INHIBITOR OF METASTATIC HUMAN PROSTATE CANCER CELLS” (Watanabe Oyster Laboratory Co., Ltd., priority 2021, published 2024).
# What was measured:
# DU-145 cells = assay: Cell growth of DU-145 cells (cell counting); assay type: cell-based, human; conditions: DHMBA 10 μM, one to six days
# Description: The PC-3 and DU-145 cells (the cell number of 1×10^5/in 1 ml of a culture fluid per hole using a 24-hole plate) were cultured in a DMEM culture fluid (containing 10% of FBS, 1% of P/S, and 1% of fungizone) containing the DHMBA (1 and 10 μM) under 5% of CO2, at 37° C., for one, two, three, four, and six days. […] After the culture, 0.1 ml of 0.05% trypsin-EDTA solution obtained by dissolving the cells adhering to the bottom surface of the culture dish in PBS (Thermo Fisher Scientific, Waltham, MA, USA) not containing Ca^2+/Mg^2+ was added, incubation was performed at 37° C. for two minutes to release the adhering cells, and 0.9 ml of the DMEM culture fluid containing 10% of FBS and 1% of P/S was added to stop the reaction. The cell number in the cell suspension was counted by the method described in the item of “Measurement of Cell Number.”
# After the culture of the cells, 0.1 ml of 0.05% trypsin-EDTA solution obtained by dissolving the cells adhering to the bottom surface of the culture dish in PBS (Thermo Fisher Scientific, Waltham, MA, USA) not containing Ca^2+/Mg^2+ was added, incubation was performed at 37° C. for two minutes to release the adhering cells, and 0.9 ml of the DMEM culture fluid containing 10% of FBS and 1% of P/S was added to stop the reaction. The visible cells were counted by the Olympus MTV-3 microscope using a hemocytometer (Sigma-Aldrich).
# FIG. 2(C) is a diagram in which the DU-145 cells (1×10^5 cells/per well of a 24-well plate) were cultured under 5% of CO2, at 37° C., for one to six days in a DMEM culture fluid (containing 10% of FBS, 1% of P/S, and 1% of fungizone) containing the DHMBA (10 μM).
# In FIGS. 2(D) and 2(E), the DU-145 cells (1×10^5 cells/per well of a 24-well plate) were cultured under 5% of CO2, at 37° C., for three (FIG. 2D) and six (FIG. 2E) days in a DMEM culture fluid (containing 10% of FBS, 1% of P/S, and 1% of fungizone) containing the DHMBA (0.01, 0.1, 1, 10, 100, and 1000 μM). After the culture, the cells adhered to the dish were removed and counted. […] 1-way ANOVA, Tukey-Kramer post-test.
# PC-3 cells = assay: Western blot of protein expression levels in PC-3 cells; assay type: cell-based, human; conditions: DHMBA 10 μM, three days
# Description: The PC-3 cells (1×10^6 cells/10 ml, 100-mm dish) were cultured in a DMEM culture fluid containing 10% of FBS, 1% of P/S, and 1% of fungizone under 5% of CO2, at 37° C., for three days. In addition, the culture fluid contained the DHMBA (10 μM). After the culture, the cells were adjusted by adding a cell lysis buffer (Cell Signaling Technology, Danvers, MA, USA) containing proteolytic enzyme and a protein phosphatase activity inhibitor. The cell solution was centrifuged at 17,000×g at 4° C. for 10 minutes to collect the supernatant. An amount of protein in the supernatant was measured using Bio-Rad Protein Assay Dye (Bio-Rad Laboratories, Inc., Hercules, CA, USA) with albumin as reference protein. Protein samples were stored in a freezer at −80° C. until being used. Using 40 μg of a protein sample solution, the product was added to SDS polyacrylamide gel electrophoresis (SDS-PAGE, 12%) and separated. After that, the protein molecules were transferred to a nylon membrane. Immunoblot was performed on the membrane using an antibody that specifically bound to the protein molecules. The antibodies, such as Ras (cat. no. 3339, rabbit), Akt (cat. no. 9272, rabbit), mitogen-activated protein kinase (MAPK: cat. no. 4695, rabbit), phosphorylated-MAPK (cat. no. 4370, rabbit), mechanistic target of rapamycin (mTOR, cat. no. 4517, mouse), Rb (cat. no. 9309, mouse), p21 (cat. no. 2947, rabbit), caveolin-1 (cat. no. 3267, rabbit), and β-actin (cat. no. 3700, mouse), were purchased from Cell Signaling Technology (Danvers, MA, USA). Also, p53 (cat. no. sc-126, mouse), NF-κB p65 (cat. no. sc-109, rabbit), and integrin β1 (cat. no. sc-13590, mouse) were obtained from Santa Cruz Biotechnology, Inc. (Santa Cruz, CA, USA). In addition, rabbit anti-regucalcin antibody was purchased from Sigma-Aldrich (cat. no. HPA029103, rabbit). Target proteins were incubated at low temperature for 16 hours using the primary antibodies described above. After that, using a secondary antibody of horseradish peroxidase-conjugated secondary antibodies (Santa Cruz Biotechnology, Inc., mouse sc-2005 or rabbit sc-2305; diluted 1:1,000), incubation was performed for 60 minutes at room temperature. After that, protein bands were illuminated with chemiluminescence substrate (cat. no. 34577, Thermo Scientific, Rockford, IL, USA) and exposed and detected on X-ray films using a developer.
# (§1) The PC-3 cells (1×10^6 cells/10 ml, 100-mm dish) were cultured under 5% of CO2, at 37° C., for three days in a DMEM culture fluid containing 10% of FBS, 1% of P/S, and 1% of fungizone. In addition, the culture fluid contained the DHMBA (10 μM). After the culture, the cells were adjusted by adding a cell lysis buffer (Cell Signaling Technology, Danvers, MA, USA) containing proteolytic enzyme and a protein phosphatase activity inhibitor. Using 40 μg of a protein sample solution, the product was separated by SDS polyacrylamide gel electrophoresis (SDS-PAGE, 12%). After that, the protein molecules were transferred to a nylon membrane. Immunoblot was performed on the membrane using an antibody that specifically bound to the protein molecules.
# as §1, with “In FIG. 5(G), the” for “The”, “molecules. […]” for “molecules.”
compound,measurement,setting,value
"COc1c(O)cc(CO)cc1O [DHMBA, 3,5-dihydroxy-4-methoxybenzyl alcohol]",cell growth,DU-145 cells,inhibited
same,expression level of Akt,PC-3 cells,significantly inhibited
same,expression level of MAP kinase,PC-3 cells,significantly inhibited
same,expression level of NF-κB p65,PC-3 cells,significantly decreased
same,expression level of PI3 kinase,PC-3 cells,significantly inhibited
same,expression level of Ras,PC-3 cells,significantly inhibited
same,expression level of Rb,PC-3 cells,significantly increased
same,expression level of caveolin-1,PC-3 cells,significantly decreased
same,expression level of integrin β1,PC-3 cells,significantly decreased
same,expression level of mTOR,PC-3 cells,significantly inhibited
same,expression level of p21,PC-3 cells,significantly increased
same,expression level of p53,PC-3 cells,significantly increased
same,expression level of phospho-MAP kinase,PC-3 cells,significantly inhibited
same,expression level of regucalcin,PC-3 cells,significantly increased
same,level of activated caspase 3 (cleaved caspase-3),PC-3 cells,increased
same,level of caspase 3,PC-3 cells,increased
